From publication PMC11992225, “Antibacterial compounds against non-growing and intracellular bacteria” (npj Antimicrobials and Resistance, 2025)
pIC50: −log10 of the molar value. Several values for one entry are separate records, joined by “and”; a condition that tells them apart may be missing. Identical values can stand only once.

How the values were obtained:
[1] = test system: non-growing P. aeruginosa DSM1117; assay: Dose-dependent killing analysis (CFU spot-plating) of stationary-phase P. aeruginosa; assay type: cell-based, Pseudomonas aeruginosa; conditions: for log10(CFU/ml) after treatment / killing, average Δlog10(CFU/ml): P. aeruginosa; for log10(CFU/ml) after treatment: individual replicates; for killing, average Δlog10(CFU/ml): vs CFU before treatment
Procedure, shortened: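 Viability by CFU: samples serially diluted 10-fold in PBS, spotted on LB agar, grown overnight at 37 °C, and colonies counted at the lowest resolvable dilution. Non-growing P. aeruginosa DSM1117 had been dosed for 24 h in 1:4 CA-MHB (pH 7.4); three biological replicates.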

[2] = test system: non-growing S. aureus DSM2569; assay: Dose-dependent killing analysis (CFU spot-plating) of stationary-phase S. aureus; assay type: cell-based, Staphylococcus aureus; conditions: S. aureus, individual replicates
Procedure, shortened: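 Survival was scored as CFU after overnight growth at 37 °C on LB agar, using spots from 10-fold PBS dilutions of treated cultures. Non-growing S. aureus DSM2569 had been exposed to compound for 24 h in 1:4 CA-MHB, pH 7.4. Three biological replicates were run.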

[3] = test system: intracellular S. flexneri 5a M90T in TC7 cells; assay: microbe, parasite or virus in culture; assay type: cell-based, Shigella flexneri; conditions: for pIC50: Shigella flexneri, TC7, 14 h
non-growing UPEC CFT073 = assay: Dose-dependent killing analysis (CFU spot-plating) of stationary-phase UPEC; assay type: cell-based, Escherichia coli; conditions: E. coli in 1:4 CA-MHB (pH 7.4), individual replicates
Procedure, shortened: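 Killing assessed by CFU counts: overnight 37 °C LB agar spot plates (10 μl drops of 10-fold PBS dilutions) scored at the lowest dilution with distinct colonies. Samples were compound-treated non-growing UPEC CFT073, 200 μl per well. Performed as three biological replicates.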

[4] = TC7 cells infected with GFP-expressing S. flexneri, 14 h treatment

COc1c(N2C[C@@H]3CCCN[C@@H]3C2)c(F)cc2c(=O)c(C(=O)O)cn(C3CC3)c12 [Moxifloxacin]
log10(CFU/ml) after treatment ([1]; concentration 0.1): 8.699 log10(CFU/ml) and 8.778 log10(CFU/ml) and 8.477 log10(CFU/ml) | killing, average Δlog10(CFU/ml) ([1]; concentration 0.1): 0.236 log10(CFU/ml) | log10(CFU/ml) after treatment ([1]; concentration 0.5): 8.301 log10(CFU/ml) and 7.778 log10(CFU/ml) (2×) | killing, average Δlog10(CFU/ml) ([1]; concentration 0.5): 0.935 log10(CFU/ml) | log10(CFU/ml) after treatment ([1]; concentration 2.5): 5.845 log10(CFU/ml) and 6.301 log10(CFU/ml) and 4.699 log10(CFU/ml) | killing, average Δlog10(CFU/ml) ([1]; concentration 2.5): 3.272 log10(CFU/ml) | log10(CFU/ml) after treatment ([1]; concentration 10): =<4 log10(CFU/ml) (2×) and 4.477 log10(CFU/ml) | killing, average Δlog10(CFU/ml) ([1]; concentration 10): 4.728 log10(CFU/ml) | log10(CFU/ml) after treatment ([2]; concentration 0.1): 8.934 log10(CFU/ml) and 9.196 log10(CFU/ml) and 8.708 log10(CFU/ml) | log10(CFU/ml) after treatment ([2]; concentration 0.5): 8.748 log10(CFU/ml) and 9.004 log10(CFU/ml) and 8.204 log10(CFU/ml) | log10(CFU/ml) after treatment ([2]; concentration 2.5): 8.505 log10(CFU/ml) and 8.431 log10(CFU/ml) and 8.167 log10(CFU/ml) | log10(CFU/ml) after treatment ([2]; concentration 10): 8.158 log10(CFU/ml) and 8.021 log10(CFU/ml) and 7.519 log10(CFU/ml) | pIC50 [3]: 7.46 | Fluorescence intensity (RFU), Mean, 0.25 x MIC ([3]; TC7 cells infected with GFP-expressing S. flexneri, 14 h treatment, 0.25 x MIC): 7400.12 RFU | Fluorescence intensity (RFU), Mean, 0.5 x MIC [3, 4]: 5542.67 RFU | Fluorescence intensity (RFU), Mean, 2 x MIC [3, 4]: 3672.56 RFU | Fluorescence intensity (RFU), Mean, 4 x MIC [3, 4]: 2897.78 RFU | Fluorescence intensity (RFU), Mean, 8 x MIC [3, 4]: 2156.25 RFU | Fluorescence intensity (RFU), Mean, 16 x MIC [3, 4]: 1789.81 RFU | Fluorescence intensity (RFU), Mean, 32 x MIC [3, 4]: 1608.56 RFU | Fluorescence intensity (RFU), Mean, MIC [3, 4]: 3564.03 RFU | log10(CFU/ml) after treatment (non-growing UPEC CFT073; concentration 0.25): 8.602 log10(CFU/ml) and 8.380 log10(CFU/ml) and 8.255 log10(CFU/ml) | log10(CFU/ml) after treatment (non-growing UPEC CFT073; concentration 0.5): 8.041 log10(CFU/ml) and 7.903 log10(CFU/ml) and 7.699 log10(CFU/ml) | log10(CFU/ml) after treatment (non-growing UPEC CFT073; concentration 1): 7.415 log10(CFU/ml) and 6.845 log10(CFU/ml) and 6.903 log10(CFU/ml) | log10(CFU/ml) after treatment (non-growing UPEC CFT073; concentration 2.5): 5.954 log10(CFU/ml) and 5.230 log10(CFU/ml) and 5.380 log10(CFU/ml) | log10(CFU/ml) after treatment (non-growing UPEC CFT073; concentration 5): 5.602 log10(CFU/ml) and 5.204 log10(CFU/ml) and 5.146 log10(CFU/ml) | log10(CFU/ml) after treatment (non-growing UPEC CFT073; concentration 10): 6.114 log10(CFU/ml) and 4.903 log10(CFU/ml) and 5.000 log10(CFU/ml)

N[C@@H]1CCCCN(c2c(F)cc3c(=O)c(C(=O)O)cn(C4CC4)c3c2Cl)C1 [Besifloxacin]
log10(CFU/ml) after treatment ([1]; concentration 0.1): 8.000 log10(CFU/ml) and 8.602 log10(CFU/ml) and 8.204 log10(CFU/ml) | killing, average Δlog10(CFU/ml) ([1]; concentration 0.1): 0.619 log10(CFU/ml) | log10(CFU/ml) after treatment ([1]; concentration 0.5): 7.845 log10(CFU/ml) and 7.699 log10(CFU/ml) (2×) | killing, average Δlog10(CFU/ml) ([1]; concentration 0.5): 1.140 log10(CFU/ml) | log10(CFU/ml) after treatment ([1]; concentration 2.5): 5.000 log10(CFU/ml) (2×) and 4.699 log10(CFU/ml) | killing, average Δlog10(CFU/ml) ([1]; concentration 2.5): 3.988 log10(CFU/ml) | log10(CFU/ml) after treatment ([1]; concentration 10): =<4 log10(CFU/ml) (2×) and 4.301 log10(CFU/ml) | killing, average Δlog10(CFU/ml) ([1]; concentration 10): 4.787 log10(CFU/ml) | reduction of bacterial counts, non-growing P. aeruginosa ([1]; at 2.5 µM, 1:4 CA-MHB pH 7.4, 24 h treatment): more than four | log10(CFU/ml) after treatment ([2]; concentration 0.1): 9.061 log10(CFU/ml) and 9.079 log10(CFU/ml) and 8.740 log10(CFU/ml) | log10(CFU/ml) after treatment ([2]; concentration 0.5): 8.398 log10(CFU/ml) and 8.431 log10(CFU/ml) and 8.104 log10(CFU/ml) | log10(CFU/ml) after treatment ([2]; concentration 2.5): 7.196 log10(CFU/ml) and 7.716 log10(CFU/ml) and 6.826 log10(CFU/ml) | log10(CFU/ml) after treatment ([2]; concentration 10): 7.033 log10(CFU/ml) and 7.000 log10(CFU/ml) and 6.100 log10(CFU/ml) | pIC50 [3]: 6.48 | Fluorescence intensity (RFU), Mean, 0.5 x MIC [3, 4]: 8982.33 RFU | Fluorescence intensity (RFU), Mean, 2 x MIC [3, 4]: 4305.25 RFU | Fluorescence intensity (RFU), Mean, 4 x MIC [3, 4]: 3977.14 RFU | Fluorescence intensity (RFU), Mean, 8 x MIC [3, 4]: 2983.69 RFU | Fluorescence intensity (RFU), Mean, 16 x MIC [3, 4]: 2325.53 RFU | Fluorescence intensity (RFU), Mean, 32 x MIC [3, 4]: 1789.06 RFU | Fluorescence intensity (RFU), Mean, MIC [3, 4]: 5856.42 RFU | log10(CFU/ml) after treatment (non-growing UPEC CFT073; concentration 0.25): 8.778 log10(CFU/ml) and 8.699 log10(CFU/ml) and 8.477 log10(CFU/ml) | log10(CFU/ml) after treatment (non-growing UPEC CFT073; concentration 0.5): 8.491 log10(CFU/ml) and 8.204 log10(CFU/ml) (2×) | log10(CFU/ml) after treatment (non-growing UPEC CFT073; concentration 1): 7.568 log10(CFU/ml) and 7.322 log10(CFU/ml) and 7.301 log10(CFU/ml) | log10(CFU/ml) after treatment (non-growing UPEC CFT073; concentration 2.5): 6.462 log10(CFU/ml) and 6.204 log10(CFU/ml) and 6.342 log10(CFU/ml) | log10(CFU/ml) after treatment (non-growing UPEC CFT073; concentration 5): 6.398 log10(CFU/ml) and 5.342 log10(CFU/ml) and 5.362 log10(CFU/ml) | log10(CFU/ml) after treatment (non-growing UPEC CFT073; concentration 10): 6.114 log10(CFU/ml) and 5.230 log10(CFU/ml) and 5.000 log10(CFU/ml)
